Laboratory results taken from patent US20060009478A1, “Methods for the treatment of back pain” (priority 2003, published 2006).

Columns and labels:
[1] = Plasma concentrations of oxycodone, oxymorphone, noroxycodone, naltrexone and 6β-naltrexol by solid phase extraction LC-MS/MS
Source text: Patients with moderate-to-severe pain due to osteoarthritis of the hip or knee were randomly assigned to one of four treatment groups as shown in Table 3 of Example 1. Plasma samples were obtained for each patient at the beginning of Weeks 1, 2, 3 and at the end of dosing during Week 3.
For the analysis of linearity and dose proportionality, linear equation coefficients were obtained by averaging patient-specific slopes and intercepts obtained by within-patient least squares regression. This was done to account for the correlation among the repeated measurements due to the patient's contributing data at each dose level. The resulting slopes among treatment groups were compared by one-way analysis of variance (ANOVA), and a one-sample t-test assessed the common slope's difference from zero. A measure of deviation from linearity was constructed as the difference between the concentration at the middle dose versus the average of the concentrations at the lower and higher doses. Due to equal spacing of doses, this measure has expectation zero under the hypothesis of linearity. As above, ANOVA and t-tests were used to assess linearity.
To achieve symmetry, modified log transformations were used.

[2] = tested on: patients with moderate to severe chronic low back pain; experiment: Opioid-associated adverse events (constipation, nausea, vomiting, dizziness, somnolence, pruritus), low back pain study
[3] = event table, all occurrences, through the treatment period, ITT
[4] = event table, % of total number of events
[5] = through the treatment period, ITT population

Question: With `COc1ccc2c3c1O[C@H]1C(=O)CC[C@@]4(O)[C@@H](C2)N(C)CC[C@]314` [OXY QID, oxycodone] as the compound, how does the “Mean plasma concentration versus dose level over the course of the study” value ([1]; FIGS. 1 and 2) read?
Answer: increased linearly with increasing dose levels

Question: What about the “Plasma concentration of oxycodone (ng/mL) versus dose of oxycodone (mg/day): slope of linear equation” value ([1]; average of patient-specific regressions, slope p<0.001, t-test) of the same compound?
Answer: 0.4223

Question: What about the “Plasma concentration of oxycodone versus dose of oxycodone (mg/day): intercept of linear equation” value ([1]; average of patient-specific within-patient least squares regressions, all active treatments) of the same compound?
Answer: 2.28 ng/mL

Question: And the “Number of events, all opioid-associated adverse events” value [2, 3]?
Answer: 2549

Question: And the “Number of events, all opioid-associated adverse events (by severity table)” value [2, 3]?
Answer: 2549

Question: And the “Number of events, constipation” value [2, 3]?
Answer: 576

Question: And the “Number of events, constipation, mild” value [2, 3]?
Answer: 430

Question: And the “Number of events, constipation, moderate” value [2, 3]?
Answer: 119

Question: And the “Number of events, constipation, severe” value [2, 3]?
Answer: 27

Question: And the “Number of events, dizziness” value [2, 3]?
Answer: 390

Question: And the “Number of events, dizziness, mild” value [2, 3]?
Answer: 314

Question: What about the “Number of events, dizziness, moderate” value [2, 3] of the same compound?
Answer: 63

Question: And the “Number of events, dizziness, severe” value [2, 3]?
Answer: 13

Question: And the “Number of events, gastrointestinal disorders” value [2, 3]?
Answer: 1143

Question: And the “Number of events, gastrointestinal disorders (by severity table)” value [2, 3]?
Answer: 1143

Question: And the “Number of events, nausea” value [2, 3]?
Answer: 459

Question: And the “Number of events, nausea, mild” value [2, 3]?
Answer: 336

Question: And the “Number of events, nausea, moderate” value [2, 3]?
Answer: 93

Question: And the “Number of events, nausea, severe” value [2, 3]?
Answer: 30

Question: And the “Number of events, nervous system disorders” value [2, 3]?
Answer: 952

Question: And the “Number of events, nervous system disorders (by severity table)” value [2, 3]?
Answer: 952

Question: And the “Number of events, pruritus” value [2, 3]?
Answer: 454

Question: And the “Number of events, pruritus, moderate” value [2, 3]?
Answer: 93

Question: And the “Number of events, pruritus, severe” value [2, 3]?
Answer: 13

Question: What about the “Number of events, skin and subcutaneous tissue disorders” value [2, 3] of the same compound?
Answer: 454

Question: And the “Number of events, skin and subcutaneous tissue disorders (by severity table)” value [2, 3]?
Answer: 454

Question: And the “Number of events, somnolence” value [2, 3]?
Answer: 562

Question: And the “Number of events, somnolence, mild” value [2, 3]?
Answer: 390

Question: And the “Number of events, somnolence, moderate” value [2, 3]?
Answer: 133

Question: What about the “Number of events, somnolence, severe” value [2, 3] of the same compound?
Answer: 39

Question: What about the “Number of events, vomiting” value [2, 3] of the same compound?
Answer: 108

Question: And the “Number of events, vomiting, mild” value [2, 3]?
Answer: 61

Question: And the “Number of events, vomiting, moderate” value [2, 3]?
Answer: 26

Question: And the “Number of events, vomiting, severe” value [2, 3]?
Answer: 21

Question: And the “% of all events, constipation, mild” value [2, 4]?
Answer: 16.9%

Question: And the “% of all events, constipation, moderate” value [2, 4]?
Answer: 4.7%

Question: What about the “% of all events, constipation, severe” value [2, 4] of the same compound?
Answer: 1.1%

Question: And the “% of all events, dizziness” value [2, 4]?
Answer: 15.3%

Question: And the “% of all events, dizziness, mild” value [2, 4]?
Answer: 12.3%

Question: And the “% of all events, dizziness, moderate” value [2, 4]?
Answer: 2.5%

Question: And the “% of all events, dizziness, severe” value [2, 4]?
Answer: 0.5%

Question: What about the “% of all events, gastrointestinal disorders” value [2, 4] of the same compound?
Answer: 44.8%

Question: What about the “% of all events, gastrointestinal disorders (by severity table)” value [2, 4] of the same compound?
Answer: 44.8%

Question: And the “% of all events, nausea” value [2, 4]?
Answer: 18.0%

Question: And the “% of all events, nausea, mild” value [2, 4]?
Answer: 13.2%

Question: What about the “% of all events, nausea, moderate” value [2, 4] of the same compound?
Answer: 3.6%

Question: And the “% of all events, nausea, severe” value [2, 4]?
Answer: 1.2%

Question: What about the “% of all events, nervous system disorders” value [2, 4] of the same compound?
Answer: 37.3%

Question: What about the “% of all events, nervous system disorders (by severity table)” value [2, 4] of the same compound?
Answer: 37.3%

Question: What about the “% of all events, pruritus” value [2, 4] of the same compound?
Answer: 17.8%

Question: And the “% of all events, pruritus, mild” value [2, 4]?
Answer: 13.7%

Question: What about the “% of all events, pruritus, moderate” value [2, 4] of the same compound?
Answer: 3.6%

Question: And the “% of all events, pruritus, severe” value [2, 4]?
Answer: 0.5%

Question: What about the “% of all events, skin and subcutaneous tissue disorders” value [2, 4] of the same compound?
Answer: 17.8%

Question: What about the “% of all events, skin and subcutaneous tissue disorders (by severity table)” value [2, 4] of the same compound?
Answer: 17.8%

Question: What about the “% of all events, somnolence” value [2, 4] of the same compound?
Answer: 22.0%

Question: What about the “% of all events, somnolence, mild” value [2, 4] of the same compound?
Answer: 15.3%

Question: And the “% of all events, somnolence, moderate” value [2, 4]?
Answer: 5.2%

Question: What about the “% of all events, somnolence, severe” value [2, 4] of the same compound?
Answer: 1.5%

Question: And the “% of all events, vomiting” value [2, 4]?
Answer: 4.2%

Question: And the “% of all events, vomiting, mild” value [2, 4]?
Answer: 2.4%

Question: And the “% of all events, vomiting, moderate” value [2, 4]?
Answer: 1.0%

Question: And the “% of all events, vomiting, severe” value [2, 4]?
Answer: 0.8%

Question: What about the “% of patients reporting constipation” value [2, 5] of the same compound?
Answer: 59.2%

Question: What about the “% of patients reporting constipation, maximum severity mild” value [2, 5] of the same compound?
Answer: 26.7%

Question: And the “% of patients reporting constipation, maximum severity moderate” value [2, 5]?
Answer: 20.9%

Question: What about the “% of patients reporting constipation, maximum severity severe” value [2, 5] of the same compound?
Answer: 11.7%

Question: And the “% of patients reporting dizziness” value [2, 5]?
Answer: 51.9%

Question: And the “% of patients reporting dizziness, maximum severity mild” value [2, 5]?
Answer: 29.6%

Question: What about the “% of patients reporting dizziness, maximum severity moderate” value [2, 5] of the same compound?
Answer: 16.0%

Question: And the “% of patients reporting dizziness, maximum severity severe” value [2, 5]?
Answer: 6.3%

Question: What about the “% of patients reporting gastrointestinal disorders” value [2, 5] of the same compound?
Answer: 77.7%

Question: And the “% of patients reporting gastrointestinal disorders (by maximum severity table)” value [2, 5]?
Answer: 77.7%

Question: What about the “% of patients reporting nausea” value [2, 5] of the same compound?
Answer: 58.3%

Question: What about the “% of patients reporting nausea, maximum severity moderate” value [2, 5] of the same compound?
Answer: 22.3%

Question: And the “% of patients reporting nausea, maximum severity severe” value [2, 5]?
Answer: 11.7%

Question: And the “% of patients reporting nervous system disorders” value [2, 5]?
Answer: 79.1%

Question: And the “% of patients reporting nervous system disorders (by maximum severity table)” value [2, 5]?
Answer: 79.1%

Question: And the “% of patients reporting pruritus, maximum severity mild” value [2, 5]?
Answer: 28.6%

Question: What about the “% of patients reporting pruritus, maximum severity moderate” value [2, 5] of the same compound?
Answer: 25.2%

Question: What about the “% of patients reporting pruritus, maximum severity severe” value [2, 5] of the same compound?
Answer: 6.3%

Question: What about the “% of patients reporting somnolence” value [2, 5] of the same compound?
Answer: 68.0%

Question: And the “% of patients reporting somnolence, maximum severity mild” value [2, 5]?
Answer: 23.3%

Question: And the “% of patients reporting somnolence, maximum severity moderate” value [2, 5]?
Answer: 29.1%

Question: And the “% of patients reporting somnolence, maximum severity severe” value [2, 5]?
Answer: 15.5%

Question: What about the “% of patients reporting vomiting, maximum severity mild” value [2, 5] of the same compound?
Answer: 9.7%

Question: What about the “% of patients reporting vomiting, maximum severity moderate” value [2, 5] of the same compound?
Answer: 7.8%

Question: And the “% of patients reporting vomiting, maximum severity severe” value [2, 5]?
Answer: 6.8%

Question: And the “Number of patients reporting constipation” value [2, 5]?
Answer: 122

Question: What about the “Number of patients reporting constipation, maximum severity mild” value [2, 5] of the same compound?
Answer: 55

Question: What about the “Number of patients reporting constipation, maximum severity moderate” value [2, 5] of the same compound?
Answer: 43

Question: What about the “Number of patients reporting constipation, maximum severity severe” value [2, 5] of the same compound?
Answer: 24

Question: And the “Number of patients reporting dizziness” value [2, 5]?
Answer: 107

Question: What about the “Number of patients reporting dizziness, maximum severity mild” value [2, 5] of the same compound?
Answer: 61

Question: And the “Number of patients reporting dizziness, maximum severity moderate” value [2, 5]?
Answer: 33

Question: What about the “Number of patients reporting dizziness, maximum severity severe” value [2, 5] of the same compound?
Answer: 13

Question: What about the “Number of patients reporting gastrointestinal disorders” value [2, 5] of the same compound?
Answer: 160

Question: What about the “Number of patients reporting gastrointestinal disorders (by maximum severity table)” value [2, 5] of the same compound?
Answer: 160

Question: What about the “Number of patients reporting nausea” value [2, 5] of the same compound?
Answer: 120

Question: And the “Number of patients reporting nausea, maximum severity mild” value [2, 5]?
Answer: 50

Question: What about the “Number of patients reporting nausea, maximum severity moderate” value [2, 5] of the same compound?
Answer: 46

Question: And the “Number of patients reporting nausea, maximum severity severe” value [2, 5]?
Answer: 24

Question: What about the “Number of patients reporting nervous system disorders” value [2, 5] of the same compound?
Answer: 163

Question: And the “Number of patients reporting nervous system disorders (by maximum severity table)” value [2, 5]?
Answer: 163

Question: What about the “Number of patients reporting pruritus” value [2, 5] of the same compound?
Answer: 124

Question: What about the “Number of patients reporting pruritus, maximum severity mild” value [2, 5] of the same compound?
Answer: 59

Question: What about the “Number of patients reporting pruritus, maximum severity moderate” value [2, 5] of the same compound?
Answer: 52

Question: And the “Number of patients reporting pruritus, maximum severity severe” value [2, 5]?
Answer: 13

Question: What about the “Number of patients reporting skin and subcutaneous tissue disorders” value [2, 5] of the same compound?
Answer: 124

Question: What about the “Number of patients reporting skin and subcutaneous tissue disorders (by maximum severity table)” value [2, 5] of the same compound?
Answer: 124

Question: What about the “Number of patients reporting somnolence” value [2, 5] of the same compound?
Answer: 140

Question: And the “Number of patients reporting somnolence, maximum severity mild” value [2, 5]?
Answer: 48

Question: And the “Number of patients reporting somnolence, maximum severity moderate” value [2, 5]?
Answer: 60

Question: What about the “Number of patients reporting somnolence, maximum severity severe” value [2, 5] of the same compound?
Answer: 32

Question: What about the “Number of patients reporting vomiting” value [2, 5] of the same compound?
Answer: 50

Question: What about the “Number of patients reporting vomiting, maximum severity mild” value [2, 5] of the same compound?
Answer: 20

Question: And the “Number of patients reporting vomiting, maximum severity moderate” value [2, 5]?
Answer: 16

Question: And the “Number of patients reporting vomiting, maximum severity severe” value [2, 5]?
Answer: 14
